Measured values from patent US6878705B2 (dated 2005).

Row | SMILES | melting point
1 | CN(Cc1cc2c(=O)c(C(=O)NCc3ccc(Cl)cc3)cn(C)c2o1)CC(CO)c1ccccc1 (stereo not shown) | 141 to 148 °C
2 | Cn1cc(C(=O)NCc2ccc(Cl)cc2)c(=O)c2cc(CCCCCO)oc21 | 151 to 152 °C
3 | CN(Cc1cc2c(=O)c(C(=O)NCc3ccc(Cl)cc3)cn(C)c2o1)CC(O)c1ccc(O)cc1 (stereo not shown) | 117 to 122 °C
4 | Cn1cc(C(=O)NCc2ccc(Cl)cc2)c(=O)c2cc(CN3CC[C@@H](O)C3)oc21 | 189 to 190 °C
5 | Cn1cc(C(=O)NCc2ccc(Cl)cc2)c(=O)c2cc(C#CCCCO)oc21 | 215 to 219 °C (dec.)
6 | CN(Cc1cc2c(=O)c(C(=O)NCc3ccc(Cl)cc3)cn(C)c2o1)CC(O)c1ccc2ccccc2n1 (stereo not shown) | 154 to 159 °C (dec.)
7 | CN(Cc1cc2c(=O)c(C(=O)NCc3ccc(Cl)cc3)cn(C)c2o1)CC(O)c1cccs1 (stereo not shown) | 145 to 147 °C
8 | CN(Cc1cc2c(=O)c(C(=O)NCc3ccc(Cl)cc3)cn(C)c2o1)CC(O)c1ccoc1 (stereo not shown) | 93 to 97 °C
9 | Cn1cc(C(=O)NCc2ccc(Cl)cc2)c(=O)c2cc(CN3CCC[C@@H]3[C@@H](O)c3ccccc3)oc21 (relative stereo) | 141 to 150 °C (dec.)
10 | CN(Cc1cc2c(=O)c(C(=O)NCc3ccc(Cl)cc3)cn(C)c2o1)CC(O)c1cc2ccccc2o1 (stereo not shown) | 176 to 179 °C
11 | Cn1cc(C(=O)NCc2ccc(Cl)cc2)c(=O)c2cc(C#CC(O)c3ccccc3)oc21 (stereo not shown) | 209 to 211 °C (dec.)
12 | CN(Cc1cc2c(=O)c(C(=O)NCc3ccc(Cl)cc3)cn(C)c2o1)CC(O)c1ccc(-c2ccccc2)o1 (stereo not shown) | 115 to 119 °C
13 | Cn1cc(C(=O)NCc2ccc(Cl)cc2)c(=O)c2cc(C#CCCO)oc21 | 242 to 243 °C (dec.)
14 | CN(Cc1cc2c(=O)c(C(=O)NCc3ccc(Cl)cc3)cn(C)c2o1)CC(O)c1cccn1C (stereo not shown) | 122 to 124 °C (dec.)
15 | O=C(NCc1ccc(Cl)cc1)c1cn(CCc2ccccc2)c2oc(CN3CCOCC3)cc2c1=O | 150 to 153 °C
16 | CN(Cc1cc2c(=O)c(C(=O)NCc3ccc(Cl)cc3)cn(C)c2o1)CC(O)c1ccccn1 (stereo not shown) [42] | 133 to 138 °C
17 | CN(Cc1cc2c(=O)c(C(=O)NCc3ccc(Cl)cc3)cn(C)c2o1)CC(O)c1ccccn1 (stereo not shown) [41] | 130 to 132 °C
18 | Cn1cc(C(=O)NCc2ccc(Cl)cc2)c(=O)c2cc(Br)oc21 | 232 to 233 °C
19 | O=C(NCc1ccc(Cl)cc1)c1cc2c(O)c(C(=O)NCc3ccc(Cl)cc3)cnc2o1 | 230 to 245 °C

Row | SMILES | melting point
20 | Cn1cc(C(=O)NCc2ccc(Cl)cc2)c(=O)c2cc(CO)oc21 | 229 to 230 °C
21 | COc1cccc(C(O)CN(C)Cc2cc3c(=O)c(C(=O)NCc4ccc(Cl)cc4)cn(C)c3o2)c1 (stereo not shown) | 116 to 120 °C
22 | CN(Cc1cc2c(=O)c(C(=O)NCc3ccc(Cl)cc3)cn(C)c2o1)CC(O)c1ccc(C#N)s1 (stereo not shown) | 190 to 195 °C (dec.)
23 | Cc1cc(C(O)CN(C)Cc2cc3c(=O)c(C(=O)NCc4ccc(Cl)cc4)cn(C)c3o2)oc1C (stereo not shown) | 140 to 140.5 °C
24 | CC(O)CN(C)Cc1cc2c(=O)c(C(=O)NCc3ccc(Cl)cc3)cn(C)c2o1 (stereo not shown) | 152 °C
25 | Cn1cc(C(=O)NCc2ccc(Cl)cc2)c(=O)c2cc(CN3CCOCC3)oc21 | 211 to 212 °C
26 | CCN(CC)CCn1cc(C(=O)NCc2ccc(Cl)cc2)c(=O)c2cc(CN3CCOCC3)oc21 | 131 to 134 °C
27 | CC(O)CNCc1cc2c(=O)c(C(=O)NCc3ccc(Cl)cc3)cn(C)c2o1 (stereo not shown) | 172 to 173 °C
28 | CN(Cc1cc2c(=O)c(C(=O)NCc3ccc(Cl)cc3)cn(C)c2o1)CC(O)c1cnccn1 (stereo not shown) | 148 to 151 °C
29 | Cn1cc(C(=O)NCc2ccc(Cl)cc2)c(=O)c2cc(CCCCO)oc21 | 157 to 160 °C
30 | CN(Cc1cc2c(=O)c(C(=O)NCc3ccc(Cl)cc3)cn(C)c2o1)CC(O)c1ccccc1 (stereo not shown) | 118 to 121 °C
31 | CN(Cc1cc2c(=O)c(C(=O)NCc3ccc(Cl)cc3)cn(C)c2o1)C[C@@H](O)c1ncccn1 | 127 to 129 °C
32 | Cn1cc(C(=O)NCc2ccc(Cl)cc2)c(=O)c2cc(C#CCC(O)c3ccccc3)oc21 (stereo not shown) | 202 to 203 °C (dec.)
33 | CN(Cc1cc2c(=O)c(C(=O)NCc3ccc(Cl)cc3)cn(C)c2o1)CC(O)c1cccnc1 (stereo not shown) | 145 to 149 °C
34 | Cn1cc(C(=O)NCc2ccc(Cl)cc2)c(=O)c2ccoc21 | 197 to 205 °C
35 | CN(Cc1cc2c(=O)c(C(=O)NCc3ccc(Cl)cc3)cn(C)c2o1)CC(O)c1nccs1 (stereo not shown) | 114 to 116 °C
36 | CN(Cc1cc2c(=O)c(C(=O)NCc3ccc(C(F)(F)F)cc3)cn(C)c2o1)C[C@@H](O)c1ccco1 | 113 to 115 °C
37 | Cc1ccc(C(O)CN(C)Cc2cc3c(=O)c(C(=O)NCc4ccc(Cl)cc4)cn(C)c3o2)o1 (stereo not shown) | 130 to 132 °C
